How the values were obtained:
Experiment in all cases: Kinase inhibitor library screening, PrestoBlue cell viability, 1 or 10 μM, 72 h
501Mel cells (parental) = conditions: 501Mel Parental, in %; for Cell viability in kinase inhibitor library screening, 501Mel Parental, 1μΜ / Cell viability in kinase inhibitor library screening, 501Mel Parental, 10μΜ: 72 h
Procedure: (§1) After 72 h of treatment, cell viability was assessed using the PrestoBlue Cell Viability Reagent (ThermoFisher Scientific). Measurements were performed with the CLARIOstar Monochromator microplate reader (BMG Labtech).
(§2) Kinase inhibitor library screening. […] Each cell line was treated in its sensitive form (parental), and also as 2 resistant derivatives, which were made resistant to either Vemurafenib (XP) or Dabrafenib (GP). Drugs were added at 2 different concentrations, 1 and 10 μM, for 72 h and cell viability was assessed using the PrestoBlue Cell Viability assay. Results are depicted as % viability compared to untreated cells. Each cell line was analyzed at least in duplicate. […] (XLSX 95 kb)

[1] = tested on: 501Mel-GP cells (Dabrafenib-resistant); conditions: 501Mel GP, in %; for Cell viability in kinase inhibitor library screening, 501Mel GP, 1μΜ / Cell viability in kinase inhibitor library screening, 501Mel GP, 10μΜ: 72 h
Procedure: as §1, §2

[2] = tested on: 501Mel-XP cells (Vemurafenib-resistant); conditions: 501Mel XP, in %; for Cell viability in kinase inhibitor library screening, 501Mel XP, 1μΜ / Cell viability in kinase inhibitor library screening, 501Mel XP, 10μΜ: 72 h
Procedure: as §1, §2

A375 cells (parental) = conditions: A375 Parental; for Cell viability in kinase inhibitor library screening, A375 Parental, 10μΜ / Cell viability in kinase inhibitor library screening, A375 Parental, 1μΜ: 72 h; for cell viability (kinase inhibitor library screening): in %
Procedure: as §1, §2

[3] = tested on: A375-GP cells (Dabrafenib-resistant); conditions: A375 GP; for Cell viability in kinase inhibitor library screening, A375 GP, 1μΜ / Cell viability in kinase inhibitor library screening, A375 GP, 10μΜ: 72 h
Procedure: as §1, §2

[4] = tested on: A375-XP cells (Vemurafenib-resistant); conditions: A375 XP; for cell viability (kinase inhibitor library screening): in %
Procedure: as §1, §2

IGR37 cells (parental) = conditions: IGR37 Parental, in %
Procedure: as §1, §2

[5] = tested on: IGR37-GP cells (Dabrafenib-resistant); conditions: IGR37 GP; for Cell viability in kinase inhibitor library screening, IGR37 GP, 10μΜ / Cell viability in kinase inhibitor library screening, IGR37 GP, 1μΜ: 72 h; for Cell viability in kinase inhibitor library screening, IGR37 GP, 1μΜ / cell viability (kinase inhibitor library screening): in %
Procedure: as §1, §2

[6] = tested on: IGR37-XP cells (Vemurafenib-resistant); conditions: IGR37 XP; for Cell viability in kinase inhibitor library screening, IGR37 XP, 10μΜ / Cell viability in kinase inhibitor library screening, IGR37 XP, 1μΜ: 72 h; for Cell viability in kinase inhibitor library screening, IGR37 XP, 1μΜ / cell viability (kinase inhibitor library screening): in %
Procedure: as §1, §2

Row | Structure (SMILES) | Cell viability in kinase inhibitor library screening, 501Mel Parental, 1μΜ (501Mel cells (parental); 1μΜ) | Cell viability in kinase inhibitor library screening, 501Mel Parental, 10μΜ (501Mel cells (parental); 10μΜ) | Cell viability in kinase inhibitor library screening, 501Mel GP, 1μΜ ([1]; 1μΜ) | Cell viability in kinase inhibitor library screening, 501Mel GP, 10μΜ ([1]; 10μΜ) | Cell viability in kinase inhibitor library screening, 501Mel XP, 1μΜ ([2]; 1μΜ) | Cell viability in kinase inhibitor library screening, 501Mel XP, 10μΜ ([2]; 10μΜ) | Cell viability in kinase inhibitor library screening, A375 Parental, 10μΜ (A375 cells (parental); 10μΜ) | Cell viability in kinase inhibitor library screening, A375 Parental, 1μΜ (A375 cells (parental); 1μΜ) | Cell viability in kinase inhibitor library screening, A375 GP, 1μΜ [3] | Cell viability in kinase inhibitor library screening, A375 GP, 10μΜ ([3]; 10μΜ) | Cell viability in kinase inhibitor library screening, A375 XP, 10μΜ ([4]; 10μΜ, 72 h) | Cell viability in kinase inhibitor library screening, IGR37 Parental, 10μΜ (IGR37 cells (parental); 10μΜ, 72 h) | Cell viability in kinase inhibitor library screening, IGR37 GP, 10μΜ ([5]; 10μΜ) | Cell viability in kinase inhibitor library screening, IGR37 GP, 1μΜ ([5]; 1μΜ) | Cell viability in kinase inhibitor library screening, IGR37 XP, 10μΜ ([6]; 10μΜ) | Cell viability in kinase inhibitor library screening, IGR37 XP, 1μΜ ([6]; 1μΜ) | further results
1 | CC[C@@H]1C(=O)N(C)c2cnc(Nc3ccc(C(=O)NC4CCN(C)CC4)cc3OC)nc2N1C1CCCC1 [BI 2536] | 77.3 | 1.6 | 52.3 | 0.263 | 29.2 | -0.237 | 30.1 | 31.0 | 31.1 | 15.5 | 8.5 | 1.3 | 2.8% | 82.9 | 1.5% | 76.3 | Cell viability in kinase inhibitor library screening, A375 XP, 1μΜ ([4]; 1μΜ, 72 h): 42.2; Cell viability in kinase inhibitor library screening, IGR37 Parental, 1μΜ (IGR37 cells (parental); 1μΜ, 72 h): 71.6
2 | COC(=O)c1ccc2c(c1)NC(=O)/C2=C(\Nc1ccc(N(C)C(=O)CN2CCN(C)CC2)cc1)c1ccccc1 [BIBF1120 (Vargatef)] |  |  |  |  |  |  |  |  |  |  |  |  |  |  |  |  | cell viability (kinase inhibitor library screening) (501Mel cells (parental); 1μΜ): 103.8; cell viability (kinase inhibitor library screening) (501Mel cells (parental); 10μΜ): 0.6; cell viability (kinase inhibitor library screening) ([1]; 1μΜ): 90.5; cell viability (kinase inhibitor library screening) ([1]; 10μΜ): -0.1; cell viability (kinase inhibitor library screening) ([2]; 1μΜ): 90.7; cell viability (kinase inhibitor library screening) ([2]; 10μΜ): -0.28; cell viability (kinase inhibitor library screening) (A375 cells (parental); 1μΜ): 104.6; cell viability (kinase inhibitor library screening) (A375 cells (parental); 10μΜ): 2.3; cell viability (kinase inhibitor library screening) ([3]; 10μΜ, in %): 1.1; cell viability (kinase inhibitor library screening) ([4]; 1μΜ): 103.7; cell viability (kinase inhibitor library screening) ([4]; 10μΜ): 1.7; cell viability (kinase inhibitor library screening) (IGR37 cells (parental); 10μΜ): 0.645; cell viability (kinase inhibitor library screening) ([5]; 1μΜ): 97.0; cell viability (kinase inhibitor library screening) ([5]; 10μΜ): 1.4; cell viability (kinase inhibitor library screening) ([6]; 1μΜ): 100.3; cell viability (kinase inhibitor library screening) ([6]; 10μΜ): 1.9
3 | Cc1ccc(-n2nc(C(C)(C)C)cc2NC(=O)Nc2ccc(OCCN3CCOCC3)c3ccccc23)cc1 [BIRB 796 (Doramapimod)] | 96.5 | 84.9 | 105.5 | 94.6 | 98.8 | 86.9 | 86.4 | 99.9 | 103.9 | 76.2 | 85.3 | 97.2 | 78.5% | 89.9 | 71.3% | 94.7 | 
